Laboratory results from patent publication EP0334956A1, “HEMOLYSIS INHIBITOR AND MEDICAL RESIN COMPOSITION, MEDICAL IMPLEMENT, AND BLOOD-PRESERVING FLUID CONTAINING THE SAME” (KAO CORPORATION, priority 1986, dated 1988).
Like-named read-outs stand apart in the source and are kept apart here.

What was measured:
[1] = system: human platelet rich plasma; assay type: cell-based
Experimental: To determine the effects brought about on platelets by the compounds used in Examples 16 through 18, the test for recovery of function of platelets was carried out by the following procedure.
First, a solution of 20,000 ppm of isopropyl decyl maleate in methanol (Example 19), a solution of 20,000 ppm of isopropyl tetradecyl maleate in methanol (Example 20), a solution of 20,000 ppm of isopropyl decyl itaconate in methanol (Example 21), a solution of 20,000 ppm of di-2-ethylhexyl maleate in methanol (Control 24), a solution of 20,000 ppm of di-2-ethylhexyl phthalate in methanol (Control 25), a solution of 20,000 ppm of dinormal decyl phthalate in methanol (Control 26), and methanol containing no added compound (blank) were prepared. These solutions were severally added to human […] in a fixed amount of 1/100. […]
To determine the effects exerted on platelets by 2-ethylhexyl isostearate used in Example 24 and 2-ethylhexyl 2-ethylhexanoate used in Example 25, a test for the recovery of function of platelets was carried out by following the procedure of Examples 19 through 21. […] The procedure of Examples 19 through 21 was repeated on these solutions to determined maximum capacity for aggregation with respect to 50µM ADP and 10µg/ml collagen in the presence of 0.2 mg of fibrinogen per ml.

erythrocytes = details: dissolving from flexible vinyl chloride resin container into preserved blood; Blood (1984); cited from earlier work
platelets = details: Jouranl of Japan blood Transfusion Society, 28(3) 282 (1981); cited from earlier work
[2] = system: human platelet rich plasma; assay: Platelet aggregation in platelet rich plasma (Aggrecoder); assay type: cell-based; details: for activity at 400 µM: Homo sapiens, Platelet, 2 h, 40 mM methanol solution added in 1/100, room temperature 2 hours, relative to blank
Experimental: A 40 mM methanol solution of isopropyl isotridecyl maleate (Example 13), a 40 mM methanol solution of glycerine-l-butyl-3-isostearyl ether (Example 14), a 40 mM methanol solution of isopropyl isolaurate (Example 15), a 40 mM methanol solution of di-2-ethylhexyl phthalate (Control 19) and methanol containing no added compound (Control 20) were severally added to a human platelet rich plasma (count of platelets about 300,000/mm ) in a fixed amount of 1/100, left standing at room temperature for 2 hours, and tested for platelet aggregation by the use of an instrument (product of Kyoto Daiichikagaku K.K. marketed under "Aggrecoder").
The percentage of transmittance of light through the solution of platelet rich plasma containing a given sample to the maximum transmittance of light through the same solution of platelet rich plasma not containing the sample (blank) was reported as the ratio of aggregation of the sample. As aggregation inducers, 5 µM ADP (adenosine diphosphoric acid) and 5 ug/ml collagen were used.

[3] = system: human concentrated red cells; assay: Hemolysis of stored CRC, reagent added as Tween 80/physiological saline emulsion; plasma hemoglobin by TMB method; assay type: cell-based; details: final concentration 0.5 mM, emulsion, 4°C, 4 weeks
Experimental: Isopropyl isotridecyl maleate was added to a 2000ug/ml polyoxyethylene monooleate (reagent-grade product of Wako Junyaku K.K. marketed under trademark designation of "Tween 80")/physiological saline mixed solution in such an amount to be contained therein in a final concentration of 4mM. A 0.2ml aliquot of the resultant emulsion was added to a human concentrated red cells (hereinafter referred to as "CRC") adjusted in advance to a hematocrit value of about 70% so as to be contained therein in a final concentration indicated in Table 1. The resulting liquid was placed in a stoppered polypropylene tube and left standing at rest at 4°C for 4 weeks. At the end of this standing, it was tested for plasma hemoglobin concentration by the TMB method (Clin. Chem., 23, 749-(1977)).
An emulsion was prepared by following the procedure of Example 1, except that isopropyl decyl maleate was used in place of isopropyl-isotridecyl maleate. A CRC sample incorporating the emulsion was left standing and thereafter tested for plasma hemoglobin concentration.
Emulsions were prepared by following the procedure of Excample 1, except that di-2-ethylhexyl phthalate (Control 1) and diisopropyl maleate, a carboxylic ester compound deviating from the scope of the present invention (Control 2) were respectively used in place of isopropyl isotridecyl maleate. CRC samples severally incorporating the emulsions were left standing and, thereafter, tested for plasma hemoglobin concentration.
Glycerine-l-butyl-3-isostearyl ether was added to a 2000 ug/ml polyoxyethylene monooleate (regent-grade product of Wako Junyaku K.K. marketed under trademark designation of "Tween 80")/ physiological saline mixed solution so as to be contained therein in a final concentration of 4 mM. A 0.2ml aliquot of the resultant emulsion was added to CRC adjusted in advance to a hematocrit value of about 70% so as to be contained therein in a final concentration indicated in Table 3. The resultant liquid was placed in a stoppered polypropylene tube and left standing at 4°C for 4 weeks. Thereafter, it was tested for plasma hemoglobin concentration by following the procedure of Example 1.
An emulsion was prepared by following the procedure of Example 5, except that glycerine-1,3-dioctyl ether was used in place of glycerine- l-butyl-3-isostearyl ether. A CRC sample incorporating the resultant emulsion was left standing and, thereafter, tested for plasma hemoglobin concentration. Controls 7 and 8
Emulsions were prepared by following the procedure of Example 5, except that di-2-ethylhexyl phthalate (Control 7) and glycerine monooctyl ether, an ether compound deviating from the scope of the present invention, (Control 8) were respectively used in place of glycerine-l-butyl-3-isostearyl ether. CRC samples incorporating the emulsions were left standing and, thereafter, tested for plasma hemoglobin concentration.
Isopropyl isolaurate was dispersed in a 2000 ug/ml poloxyethylene monooleate (reagent-grade product of Wako Junyaku K.K. marketed under trademark designation of "Tween 80")/physiological saline mixed solution so as to be contained therein in a concentration of 4 mM. A 0.2-ml aliquot of the resultant emulsion was added to CRC adjusted in advance to a hematocrit value of about 70% so as to be contained therein in a final concentration indicated in Table 5. The resultant liquid was placed in a stoppered polypropylene tube and left standing at 4°C for 4 weeks. Thereafter, it was tested for plasma hemoglobin concentration by following the procedure of Example 1.
An emulsion was prepared by following the procedure of Example 9, except that 2-ethylhexyl isostearate was used in place of isopropyl isolaurate. A CRC sample incorporating the resultant emulsion was left standing and, thereafter, tested for plasma hemoglobin concentration.

SMILES	action on recovery of ability of platelet aggregation (in words) [1]	effect on hemolysis of erythrocytes (in words) (erythrocytes)	effect on aggregating ability of platelets (in words) (platelets)	activity at 400 µM ([2]; read-out: Ratio of platelet aggregation, aggregation inducer 5 µM ADP) [%]	activity at 400 µM ([2]; read-out: Ratio of platelet aggregation, aggregation inducer 5 µg/ml collagen) [%]	effect on aggregating ability of platelets (in words) ([2]; summary of Table 7)	Hemoglobin concentration in plasma ([3]; Table 1) [Mg/ml]	Hemoglobin concentration in plasma ([3]; Table 3) [mg/mL]	Hemoglobin concentration in plasma ([3]; Table 5) [mg/mL]
CCCCC(CC)COC(=O)CCCCCCCCCCCCCCC(C)C (stereo not shown) [2-ethylhexyl isostearate]	produced no discernible action to curb recovery of the ability of platelet aggregation								
CCCCC(CC)COC(=O)C(CC)CCCC (stereo not shown) [2-ethylhexyl 2-ethylhexanoate]	produced no discernible action to curb recovery of the ability of platelet aggregation								
CCCCC(CC)COC(=O)c1ccccc1C(=O)OCC(CC)CCCC (stereo not shown) [Di-2-ethylhexyl phthalate, reference compound]		serves to hinder the hemolysis of erythrocytes	hinders the aggregating ability of platelets	92.1	89.6	produced a discernible effect of curbing the recovery of the aggregating ability of platelets	41	62	35
